Assay results: patent EP4778922A1, “BICYCLIC COMPOUND, AND PREPARATION METHOD THEREFOR AND PHARMACEUTICAL USE THEREOF” (Shanghai Jeyou Pharmaceutical Co., Ltd., priority 2023, dated 2025)
pIC50: −log10 of the molar value.

Columns and labels:
[1] = system: LNCaP cells; experiment: Cell proliferation inhibition assay in LNCaP cells (0.2 nM DHT, CellTiter-Glo, 7 days); assay type: cell-based, human; conditions: Homo sapiens, 168 h
Description: • 1. The human prostate cancer cell lines 22RV1 and LNCaP were purchased from ATCC. […] The cell concentration was adjusted to an appropriate concentration (determined based on the results of cell density optimization experiments), and the cells were seeded into a 96-well plate. A 100 µL cell suspension was added, resulting in 3000 cells per well. […] On the second day, for 22Rv1 cells, test compounds at different concentrations were added, and the cells were incubated at 37°C in a 5% CO2 incubator for 7 days; for LNCaP cells, test compounds at different concentrations were added first, and after 1 hour of treatment, 0.2 nM DHT was added. The cells were then incubated at 37°C in a 5% CO2 incubator for 7 days. • 4. After the incubation period, a volume of CellTiter-Glo detection reagent equal to the volume of the culture medium was added to each well. The plate was shaken and mixed thoroughly for 5 minutes, then incubated at room temperature for 10 minutes. Readings were taken using a PerkinElmer EnVision microplate reader. • 5.
The IC50 curve was fitted and the IC50 value was calculated using the software GraphPad Prism 8 with the calculation formula XY-analysis/Nonlinear regression (curve fit)/Dose response-Inhibition/log (inhibitor) vs. response-Variable slope (four parameters).

[2] = system: 22RV1 cells; experiment: Cell proliferation inhibition assay in 22RV1 cells (CellTiter-Glo, 7 days); assay type: cell-based, human; conditions: Homo sapiens
How it was run: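 22RV1 cells received compound alone; LNCaP cells were stimulated with 0.2 nM DHT added 1 h after compound. Seeding was 3000 cells/well.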

[3] = Mouse pharmacokinetic test; assay type: in vivo, ICR mice; conditions: plasma, po, 30 mg/kg, PO-30mpk; for Tmax: read-out: Tmax
Description: Formulation preparation: The dosing solutions were prepared on the day of administration.
Six healthy male naive ICR mice weighing 25-30 g were selected and divided into two groups (intravenous and oral groups), with three mice in each group, and administered a single dose. […] Feeding was resumed 4 h after administration. Timing was initiated following intravenous and oral administration. […] The collected whole blood was briefly vortexed twice for mixing, placed on wet ice, and centrifuged at 4°C and 8000 rpm for 5 min within 1 h. The supernatant plasma was collected and stored at -80°C until processing and analysis. Table 3: Pharmacokinetics in mice

Work on CC(C)(c1ccc(-c2cnc(OCc3ccnc(N4CC5(CCS5(=N)=O)C4)n3)cn2)cc1)c1cc(Cl)c(OCCCl)c(C#N)c1 (racemic) [Compound 375] yielded a pIC50 [1] of 7.23 and a pIC50 ([2]; 168 h) of 6.92.
CC(C)(c1ccc(-c2cnc(OCc3ccnc(N4CC(S(=N)(=O)C5CC5)C4)n3)cn2)cc1)c1cc(Cl)c(OCCCl)c(C#N)c1 (single isomer, unassigned) [Compound 350B] showed a pIC50 [1] of 6.30.
Work on CC(C)(c1ccc(-c2ncc(OCc3ccnc(N4CC(S(C)(=N)=O)C4)n3)cn2)cc1)c1cc(Cl)c(OCCCl)c(C#N)c1 (single isomer, unassigned) [Compound 366A] yielded a pIC50 [1] of 6.01.
Work on CC(C)(c1ccc(-c2ccc(OCc3ccnc(N=S4(=O)CCNCC4)n3)cc2)cc1)c1cc(Cl)c(OCCCl)c(C#N)c1 [Compound 108] yielded a pIC50 [1] of 6.52 and a pIC50 ([2]; 168 h) of 7.22.
CC(C)(c1ccc(-c2ccc(OCc3ccnc(N=S4(=O)CCN(CCO)CC4)n3)cc2)cc1)c1cc(Cl)c(OCCCl)c(C#N)c1 [Compound 164] gave a pIC50 [1] of 6.32 and a pIC50 ([2]; 168 h) of 7.35.
Work on CC(C)(c1ccc(-c2ccc(OCc3ccnc(N=S4(=O)CCN(CC(F)F)CC4)n3)cn2)cc1)c1cc(Cl)c(OCCCl)c(C#N)c1 [Compound 179] yielded a pIC50 [1] of 6.28 and a pIC50 ([2]; 168 h) of 6.39.
For CC(C)(c1ccc(-c2ccc(OCc3ccnc(N4CC(N=S(C)(C)=O)C4)n3)cc2)cc1)c1cc(Cl)c(OCCCl)c(C#N)c1 [Compound 195], the pIC50 [1] was 6.34 and the pIC50 ([2]; 168 h) was 7.42.
Compound CC(C)(c1ccc(-c2ccc(OCCOc3nccc(N4CC5(COC5)C4)n3)cc2)cc1)c1cc(Cl)c(OCCCl)c(C#N)c1 [Compound 203] has a pIC50 ([1]; LNCaP) of 6.36 and a pIC50 ([2]; 22Rv1, 168 h) of 7.33.
Compound CC(C)(c1ccc(-c2ccc(OCc3ccnc(N4CC5(COC5)C4)n3)nc2)cc1)c1cc(Cl)c(OCCCl)c(C#N)c1 [Compound 209] has a pIC50 [1] of 6.38 and a pIC50 ([2]; 168 h) of 6.54.
Compound CC(C)(c1ccc(-c2ccc(COc3ccnc(P(C)(C)=O)n3)cc2)cc1)c1cc(Cl)c(OCCCl)c(C#N)c1 [Compound 253] has an AUC(0-inf) [3] of 298 µg·h/mL, a Cmax [3] of 20800 ng/mL and a half-life [3] of 7.3 h. The Tmax [3] was 5 h and the pIC50 ([2]; 22Rv1, 168 h) was 5.97.
With CC(C)(O)CN1CCS(=O)(=Nc2nccc(COc3ccc(-c4ccc(C(C)(C)c5cc(Cl)c(OCCCl)c(C#N)c5)cc4)cc3)n2)CC1 [Compound 254] the pIC50 [1] was 6.36 and the pIC50 ([2]; 168 h) was 6.80.
For CNS(=O)(=O)C1CN(c2nccc(COc3ccc(-c4ccc(C(C)(C)c5cc(Cl)c(OCCCl)c(C#N)c5)cc4)nc3)n2)C1 [Compound 258], the AUC(0-inf) [3] was 323 µg·h/mL, the Cmax [3] was 39200 ng/mL and the half-life [3] was 5.2 h. It also gave a Tmax [3] of 3 h and a pIC50 ([2]; 22Rv1, 168 h) of 6.20.
Compound CC(C)(c1ccc(-c2ccc(OCC3CCC4(CC3)CN(c3ccnc(P(C)(C)=O)n3)C4)cc2)cc1)c1cc(Cl)c(OCCCl)c(C#N)c1 [Compound 260] has a pIC50 [1] of 6.21 and a pIC50 ([2]; 168 h) of 6.77.
In the case of CC(C)(c1ccc(-c2ccc(OCc3ccnc(N=S4(=O)CCN(CC(F)F)CC4)n3)nc2)cc1)c1cc(Cl)c(OCCCl)c(C#N)c1 [Compound 264], the pIC50 [1] was 6.01 and the pIC50 ([2]; 168 h) was 6.60.
For CC(C)(c1ccc(-c2ncc(OCc3ccc(-c4cnc(P(C)(C)=O)nc4)cc3)cn2)cc1)c1cc(Cl)c(OCCCl)c(C#N)c1 [Compound 272], the AUC(0-inf) [3] was 755 µg·h/mL, the Cmax [3] was 53200 ng/mL and the half-life [3] was 5.8 h. It also gave a Tmax [3] of 4 h and a pIC50 ([2]; 22Rv1, 168 h) of 6.19.
Work on C[C@H](Cl)COc1c(Cl)cc(C(C)(C)c2ccc(-c3ccc(OCc4ccnc(P(C)(C)=O)n4)cc3)cc2)cc1C#N [Compound 283] yielded an AUC(0-inf) [3] of 277 µg·h/mL, a Cmax [3] of 18700 ng/mL and a half-life [3] of 9.3 h. It also gave a Tmax [3] of 4 h and a pIC50 ([2]; 22Rv1, 168 h) of 6.08.
CC(C)(c1ccc(-c2ccc(OCc3ccnc(N=S4(=O)CCC(F)(F)CC4)n3)cc2)cc1)c1cc(Cl)c(OCCCl)c(C#N)c1 [Compound 288] gave a pIC50 [1] of 6.26 and a pIC50 ([2]; 168 h) of 7.13.
CC(C)(c1ccc(-c2ccc(OCCN3CCS(=O)(=O)CC3)cc2)cc1)c1cc(Cl)c(OCCCl)c(C#N)c1 [Compound 298] gave a pIC50 [1] of 6.12 and a pIC50 ([2]; 168 h) of 6.72.
With CC(C)(c1ccc(-c2ccc(OCC3CC4(C3)CS(=N)(=O)C4)cc2)cc1)c1cc(Cl)c(OCCCl)c(C#N)c1 (stereo not shown) [Compound 308] the AUC(0-inf) [3] was 186 µg·h/mL, the Cmax [3] was 14300 ng/mL and the half-life [3] was 4.45 h. The Tmax [3] was 3 h and the pIC50 ([2]; 22Rv1, 168 h) was 6.12.
In the case of CC(C)(c1ccc(-c2ccc(OCc3ccc(-c4cnc(N5CC6(C5)CS(=N)(=O)C6)nc4)cc3)cc2)cc1)c1cc(Cl)c(OCCCl)c(C#N)c1 [Compound 317], the pIC50 [1] was 6.57 and the pIC50 ([2]; 168 h) was 5.98.
For CC(C)(c1ccc(-c2cnc(OCC34CC(c5cnc(P(C)(C)=O)nc5)(C3)C4)cn2)cc1)c1cc(Cl)c(OCCCl)c(C#N)c1 [Compound 322], the pIC50 [1] was 6.92 and the pIC50 ([2]; 168 h) was 5.98.
Compound CC(C)(c1ccc(-c2cccc3c(OCc4ccnc(P(C)(C)=O)n4)nccc23)cc1)c1cc(Cl)c(OCCCl)c(C#N)c1 [Compound 345] has a pIC50 [1] of 6.64.
Compound CC(C)(c1ccc(-c2ccc(OCC34CC(c5cnc(P(C)(C)=O)nc5)(C3)C4)cn2)cc1)c1cc(Cl)c(OCCCl)c(C#N)c1 [Compound 367] has a pIC50 [1] of 6.04.
CC(C)(c1ccc(-c2cnc(OCc3ccnc(N4CC(S(C)(=N)=O)C4)n3)nc2)cc1)c1cc(Cl)c(OCCCl)c(C#N)c1 (stereo not shown) [Compound 372] showed a pIC50 [1] of 6.18.
Work on CC(C)(c1ccc(-c2cnc(OCc3ccc(-c4cnc(P(C)(C)=O)nc4)nc3)nc2)cc1)c1cc(Cl)c(OCCCl)c(C#N)c1 [Compound 374] yielded a pIC50 [1] of 6.04.
CC(C)(c1ccc(-c2cnc(COc3ccnc(N4CC(S(C)(=O)=O)C4)n3)nc2)cc1)c1cc(Cl)c(OCCCl)c(C#N)c1 [Compound 383] gave a pIC50 [1] of 6.24.
Work on CC(C)(c1ccc(-c2ccc(Oc3ncc(-c4cnc(CP(C)(C)=O)nc4)cn3)cc2)cc1)c1cc(Cl)c(OCCCl)c(C#N)c1 [Compound 399] yielded a pIC50 [1] of 6.01.
Work on CC(C)(c1ccc(-c2ccc(OCc3ccnc(N4CC5(C4)CS(=N)(=O)C5)n3)nc2)cc1)c1cc(Cl)c(OCCCl)c(C#N)c1 [Compound 400] yielded a pIC50 [1] of 6.16.
With CC(C)(c1ccc(-c2ccc(OCc3ccnc(N4CC5(CCS5(=N)=O)C4)n3)cn2)cc1)c1cc(Cl)c(OCCCl)c(C#N)c1 (stereo not shown) [Compound 404] the pIC50 [1] was 6.31.
CC(C)(c1ccc(-c2ccc(OCc3cnc(-c4cnc(P(C)(C)=O)nc4)cn3)cc2)cc1)c1cc(Cl)c(OCCCl)c(C#N)c1 [Compound 408] gave a pIC50 [1] of 6.74.
CC(C)(c1ccc(-c2ccc(OCc3ccnc(N4CC(S(C)(=O)=NC#N)C4)n3)cn2)cc1)c1cc(Cl)c(OCCCl)c(C#N)c1 (stereo not shown) [Compound 413] showed a pIC50 [1] of 6.10.
Work on CC(C)(c1ccc(-c2ccc(OCc3ccnc(N4CC(S(C)(=O)=O)C4)n3)nn2)cc1)c1cc(Cl)c(OCCCl)c(C#N)c1 [Compound 423] yielded a pIC50 [1] of 6.34.
With CC(C)(c1ccc(-c2ncc(OCc3ccc(-c4cnc(P(C)(C)=O)nc4)nc3)cn2)cc1)c1cc(Cl)c(OCCCl)c(C#N)c1 [Compound 426] the pIC50 [1] was 6.03.
CC(C)(c1ccc(-c2ccc(COc3ccnc(P(C)(C)=O)n3)nc2)cc1)c1cc(Cl)c(OCCCl)c(C#N)c1 [Compound 427] showed a pIC50 [1] of 6.08.
Compound CC(C)(c1ccc(-c2ccc3c(c2)C(=O)N(Cc2ccnc(P(C)(C)=O)n2)C3)cc1)c1cc(Cl)c(OCCCl)c(C#N)c1 [Compound 439] has a pIC50 [1] of 6.33.
Compound CC(=O)c1nccc(COc2cnc(-c3ccc(C(C)(C)c4cc(Cl)c(OCCCl)c(C#N)c4)cc3)cn2)n1 [Compound 441] has a pIC50 [1] of 6.02.
CC(C)(c1ccc(-c2ncc(OCc3ccc(-c4ccc(P(C)(C)=O)nn4)cc3)cn2)cc1)c1cc(Cl)c(OCCCl)c(C#N)c1 [Compound 455] showed a pIC50 [1] of 6.80.
CC(C)(c1ccc(N2CCCc3cc(OCc4ccnc(P(C)(C)=O)n4)ccc32)cc1)c1cc(Cl)c(OCCCl)c(C#N)c1 [Compound 457] gave a pIC50 [1] of 6.01.
For CC(C)(c1ccc(-c2ccc(OCc3ccnc(P(C)(C)=O)n3)cc2)nc1)c1cc(Cl)c(OCCCl)c(C#N)c1 [Compound 459], the pIC50 ([1]; LNCaP) was 6.00.
CC(C)(c1ccc(-c2ccc(OCc3ccnc(N4CC(S(C)(=O)=O)C4)n3)cc2)nc1)c1cc(Cl)c(OCCCl)c(C#N)c1 [Compound 460] gave a pIC50 [1] of 6.35.
With CC(C)(c1ccc(-c2ccc(OCc3ccnc(N4CC(S(C)(=N)=O)C4)n3)cc2)nc1)c1cc(Cl)c(OCCCl)c(C#N)c1 (stereo not shown) [Compound 461] the pIC50 [1] was 6.24.
For CC(C)(c1cc(Cl)c(OCCCl)c(C#N)c1)c1ccc(-c2ccc(OCc3ccnc(P(C)(C)=O)n3)cc2)cn1 [Compound 474], the pIC50 [1] was 6.17.
Compound CC(C)(c1cc(Cl)c(OCCCl)c(C#N)c1)c1ccc(-c2ccc(OCc3ccnc(N4CC(S(C)(=N)=O)C4)n3)cn2)cn1 (stereo not shown) [Compound 475] has a pIC50 [1] of 6.15.
In the case of CC(C)(c1cc(Cl)c(OCCCl)c(C#N)c1)c1ccc(-c2ccc(OCc3ccnc(N4CC(S(C)(=O)=O)C4)n3)nc2)cn1 [Compound 478], the pIC50 [1] was 6.11.
In the case of CC(C)(c1cc(Cl)c(OCCCl)c(C#N)c1)c1ccc(-c2ccc(OCc3ccnc(N4CC(S(C)(=N)=O)C4)n3)nc2)cn1 (stereo not shown) [Compound 479], the pIC50 [1] was 6.15.
